Results reported in US6770596B1, “Fused tricyclic compounds, process for their preparation, and herbicidal compositions containing them” (Ishihara Sangyo Kaisha Ltd., priority 2002, dated 2004).

Experiments:
Assay type in all cases: in vivo
[1] = test system: green foxtail (Setaria viridis, SEV); test: Post-emerge test, green foxtail; details: 250 g ai/ha, 14 days after application, rating scale 0-100 (0 no damage, 100 complete death)
Summary of the method: (§1)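 Plants grow in sandy loam pots for 8-21 days, then receive an acetone spray (187 l/ha, 0.25% v/v non-ionic surfactant) at 8-1000 g ai/ha. Plant damage is rated 0-100 at 14 days.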

[2] = test system: cocklebur (Xanthium strumariunt, XAS); test: Post-emerge test, cocklebur; details: 250 g ai/ha, 14 days after application, rating scale 0-100 (0 no damage, 100 complete death)
Summary of the method: as §1

[3] = test system: ivyleaf morningglory (Ipomoea hederacea, IPH); test: Post-emerge test, ivyleaf morningglory; details: 250 g ai/ha, 14 days after application, rating scale 0-100 (0 no damage, 100 complete death)
Summary of the method: as §1

[4] = test system: soybean (Glycine max L., var. Pella 86, SOY); test: Pre-emerge test, crop damage soybean; details: pre-emerge, 250 g ai/ha, 14 days after application, rating scale 0-100 (0 no damage, 100 complete death)
Summary of the method: (§2)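 Sandy loam soil mix, 10 cm pots, sowing 1 d before treatment; spray volume 187 l/ha, rates 8–1000 g ai/ha in acetone; 0–100 visual rating at 14 d.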

[5] = test system: sicklepod (Cassia obtusifolia, CAO); test: Post-emerge test, sicklepod; details: 250 g ai/ha, 14 days after application, rating scale 0-100 (0 no damage, 100 complete death)
Summary of the method: as §1

[6] = test system: johnsongrass (Sorghum halepense, SOH); test: Pre-emerge test, johnsongrass; details: 250 g ai/ha, 14 days after application, rating scale 0-100 (0 no damage, 100 complete death)
Summary of the method: (§3)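 Pots (10 cm, sandy loam mix) were seeded one day ahead of spraying. Test materials, dissolved in acetone, went on at 8–1000 g ai/ha in a 187 l/ha spray volume. Damage was scored 14 days later from 0 (none) to 100 (total kill).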

[7] = test system: lambsquarters (Chenopodium album, CHA); test: Pre-emerge test, lambsquarters; details: 250 g ai/ha, 14 days after application, rating scale 0-100 (0 no damage, 100 complete death)
Summary of the method: as §3

[8] = test system: upland rice (Oryza sp., var.Tebonnet, RICE); test: Post-emerge test, crop damage upland rice; details: post-emerge, 250 g ai/ha, 14 days after application, rating scale 0-100 (0 no damage, 100 complete death)
Summary of the method: as §1

[9] = test system: large crabgrass (Digitaria sanguinalis, DIS); test: Post-emerge test, large crabgrass; details: 250 g ai/ha, 14 days after application, rating scale 0-100 (0 no damage, 100 complete death)
Summary of the method: as §1

[10] = test system: cocklebur (Xanthium strumariunt, XAS); test: Pre-emerge test, cocklebur; details: 250 g ai/ha, 14 days after application, rating scale 0-100 (0 no damage, 100 complete death)
Summary of the method: as §3

[11] = test system: common ragweed (Ambrosia artemisiifolia L., AML); test: Pre-emerge test, common ragweed; details: 250 g ai/ha, 14 days after application, rating scale 0-100 (0 no damage, 100 complete death)
Summary of the method: as §3

[12] = test system: lambsquarters (Chenopodium album, CHA); test: Post-emerge test, lambsquarters; details: 250 g ai/ha, 14 days after application, rating scale 0-100 (0 no damage, 100 complete death)
Summary of the method: as §1

[13] = test system: large crabgrass (Digitaria sanguinalis, DIS); test: Pre-emerge test, large crabgrass; details: 250 g ai/ha, 14 days after application, rating scale 0-100 (0 no damage, 100 complete death)
Summary of the method: as §3

[14] = test system: redroot pigweed (Amaranthus retroflexus, AMR); test: Post-emerge test, redroot pigweed; details: 250 g ai/ha, 14 days after application, rating scale 0-100 (0 no damage, 100 complete death)
Summary of the method: as §1

[15] = test system: green foxtail (Setaria viridis, SEV); test: Pre-emerge test, green foxtail; details: 250 g ai/ha, 14 days after application, rating scale 0-100 (0 no damage, 100 complete death)
Summary of the method: as §3

[16] = test system: sicklepod (Cassia obtusifolia, CAO); test: Pre-emerge test, sicklepod; details: 250 g ai/ha, 14 days after application, rating scale 0-100 (0 no damage, 100 complete death)
Summary of the method: as §3

[17] = test system: upland rice (Oryza sp., var.Tebonnet, RICE); test: Pre-emerge test, crop damage upland rice; details: pre-emerge, 250 g ai/ha, 14 days after application, rating scale 0-100 (0 no damage, 100 complete death)
Summary of the method: as §2

[18] = test system: wheat (Triticum aestivum); test: Pre-emerge test, crop damage wheat; details: pre-emerge, 250 g ai/ha, 14 days after application, rating scale 0-100 (0 no damage, 100 complete death)
Summary of the method: as §2

[19] = test system: johnsongrass (Sorghum halepense, SOH); test: Post-emerge test, johnsongrass; details: 250 g ai/ha, 14 days after application, rating scale 0-100 (0 no damage, 100 complete death)
Summary of the method: as §1

[20] = test system: velvetleaf (Abutilon theophrasti, ABT); test: Post-emerge test, velvetleaf; details: 250 g ai/ha, 14 days after application, rating scale 0-100 (0 no damage, 100 complete death)
Summary of the method: as §1

[21] = test system: velvetleaf (Abutilon theophrasti, ABT); test: Pre-emerge test, velvetleaf; details: 250 g ai/ha, 14 days after application, rating scale 0-100 (0 no damage, 100 complete death)
Summary of the method: as §3

[22] = test system: barnyardgrass (Echinachloa crus-galli, ECC); test: Pre-emerge test, barnyardgrass; details: 250 g ai/ha, 14 days after application, rating scale 0-100 (0 no damage, 100 complete death)
Summary of the method: as §3

[23] = test system: soybean (Glycine max L., var. Pella 86, SOY); test: Post-emerge test, crop damage soybean; details: post-emerge, 250 g ai/ha, 14 days after application, rating scale 0-100 (0 no damage, 100 complete death)
Summary of the method: as §1

[24] = test system: barnyardgrass (Echinachloa crus-galli, ECC); test: Post-emerge test, barnyardgrass; details: 250 g ai/ha, 14 days after application, rating scale 0-100 (0 no damage, 100 complete death)
Summary of the method: as §1

[25] = test system: field corn (Zea mays L., var. Dekalb 535, CORN); test: Post-emerge test, crop damage field corn; details: post-emerge, 250 g ai/ha, 14 days after application, rating scale 0-100 (0 no damage, 100 complete death)
Summary of the method: as §1

[26] = test system: field corn (Zea mays L., var. Dekalb 535, CORN); test: Pre-emerge test, crop damage field corn; details: pre-emerge, 250 g ai/ha, 14 days after application, rating scale 0-100 (0 no damage, 100 complete death)
Summary of the method: as §2

[27] = test system: common ragweed (Ambrosia artemisiifolia L., AML); test: Post-emerge test, common ragweed; details: 250 g ai/ha, 14 days after application, rating scale 0-100 (0 no damage, 100 complete death)
Summary of the method: as §1

[28] = test system: redroot pigweed (Amaranthus retroflexus, AMR); test: Pre-emerge test, redroot pigweed; details: 250 g ai/ha, 14 days after application, rating scale 0-100 (0 no damage, 100 complete death)
Summary of the method: as §3

[29] = test system: wheat (Triticum aestivum); test: Post-emerge test, crop damage wheat; details: post-emerge, 250 g ai/ha, 14 days after application, rating scale 0-100 (0 no damage, 100 complete death)
Summary of the method: as §1

[30] = test system: ivyleaf morningglory (Ipomoea hederacea, IPH); test: Pre-emerge test, ivyleaf morningglory; details: 250 g ai/ha, 14 days after application, rating scale 0-100 (0 no damage, 100 complete death)
Summary of the method: as §3

SMILES	Post-emerge Herbicidal Activity SEV (phytotoxicity rating) [1]	Post-emerge Herbicidal Activity XAS (phytotoxicity rating) [2]	Post-emerge Herbicidal Activity IPH (phytotoxicity rating) [3]	Pre-emerge crop damage SOY (phytotoxicity rating) [4]	Post-emerge Herbicidal Activity CAO (phytotoxicity rating) [5]	Pre-emerge Herbicidal Activity SOH (phytotoxicity rating) [6]	Pre-emerge Herbicidal Activity CHA (phytotoxicity rating) [7]	Post-emerge crop damage RICE (phytotoxicity rating) [8]	Post-emerge Herbicidal Activity DIS (phytotoxicity rating) [9]	Pre-emerge Herbicidal Activity XAS (phytotoxicity rating) [10]	Pre-emerge Herbicidal Activity AML (phytotoxicity rating) [11]	Post-emerge Herbicidal Activity CHA (phytotoxicity rating) [12]	Pre-emerge Herbicidal Activity DIS (phytotoxicity rating) [13]	Post-emerge Herbicidal Activity AMR (phytotoxicity rating) [14]	Pre-emerge Herbicidal Activity SEV (phytotoxicity rating) [15]	Pre-emerge Herbicidal Activity CAO (phytotoxicity rating) [16]	Pre-emerge crop damage RICE (phytotoxicity rating) [17]	Pre-emerge crop damage WHEAT (phytotoxicity rating) [18]	Post-emerge Herbicidal Activity SOH (phytotoxicity rating) [19]	Post-emerge Herbicidal Activity ABT (phytotoxicity rating) [20]	other results
CCC1C(=O)Nc2c3c(cc(F)c2-n2nc(C)n(C(F)F)c2=O)OCC(=O)N31 (stereo not drawn) [1-75]	0	20	80	98	0	100	100	40	0	85	85	80	100	0	99	65	99	10	0	90	Pre-emerge Herbicidal Activity ABT (phytotoxicity rating) [21]: 100; Pre-emerge Herbicidal Activity ECC (phytotoxicity rating) [22]: 100; Post-emerge crop damage SOY (phytotoxicity rating) [23]: 55; Post-emerge Herbicidal Activity ECC (phytotoxicity rating) [24]: 0; Post-emerge crop damage CORN (phytotoxicity rating) [25]: 0; Pre-emerge crop damage CORN (phytotoxicity rating) [26]: 100; Post-emerge Herbicidal Activity AML (phytotoxicity rating) [27]: 45; Pre-emerge Herbicidal Activity AMR (phytotoxicity rating) [28]: 50; Post-emerge crop damage WHEAT (phytotoxicity rating) [29]: 0; Pre-emerge Herbicidal Activity IPH (phytotoxicity rating) [30]: 99
Cn1nc(-c2c(F)cc3c4c2NC(=O)C(c2ccccc2)N4C(=O)CO3)c(Cl)c1OC(F)F (stereo not drawn) [1-33]	95	70	98	15	60	70	100	95	25	75	100	99	100	99	99	65	10	10	65	100	Pre-emerge Herbicidal Activity ABT (phytotoxicity rating) [21]: 100; Pre-emerge Herbicidal Activity ECC (phytotoxicity rating) [22]: 55; Post-emerge crop damage SOY (phytotoxicity rating) [23]: 60; Post-emerge Herbicidal Activity ECC (phytotoxicity rating) [24]: 65; Post-emerge crop damage CORN (phytotoxicity rating) [25]: 25; Pre-emerge crop damage CORN (phytotoxicity rating) [26]: 0; Post-emerge Herbicidal Activity AML (phytotoxicity rating) [27]: 70; Pre-emerge Herbicidal Activity AMR (phytotoxicity rating) [28]: 100; Post-emerge crop damage WHEAT (phytotoxicity rating) [29]: 65; Pre-emerge Herbicidal Activity IPH (phytotoxicity rating) [30]: 70
CCC1C(=O)Nc2c(-c3nn(C)c(OC(F)F)c3Cl)c(F)cc3c2N1C(=O)C(C)(C)O3 (stereo not drawn) [1-61]	85	90	100	25	30	100	100	30	0	60	80	99	98	75	100	65	10	15	20	98	Pre-emerge Herbicidal Activity ABT (phytotoxicity rating) [21]: 100; Pre-emerge Herbicidal Activity ECC (phytotoxicity rating) [22]: 99; Post-emerge crop damage SOY (phytotoxicity rating) [23]: 25; Post-emerge Herbicidal Activity ECC (phytotoxicity rating) [24]: 35; Post-emerge crop damage CORN (phytotoxicity rating) [25]: 3; Pre-emerge crop damage CORN (phytotoxicity rating) [26]: 0; Post-emerge Herbicidal Activity AML (phytotoxicity rating) [27]: 60; Pre-emerge Herbicidal Activity AMR (phytotoxicity rating) [28]: 100; Post-emerge crop damage WHEAT (phytotoxicity rating) [29]: 30; Pre-emerge Herbicidal Activity IPH (phytotoxicity rating) [30]: 98
O=C1CN2C(=O)COc3cc(F)c(-n4nnn(CCCF)c4=O)c(c32)N1 [1-76]	0	0	0	0	0	35	98	0	0	60	55	0	25	0	0	45	10	0	0	0	Pre-emerge Herbicidal Activity ABT (phytotoxicity rating) [21]: 55; Pre-emerge Herbicidal Activity ECC (phytotoxicity rating) [22]: 35; Post-emerge crop damage SOY (phytotoxicity rating) [23]: 0; Post-emerge Herbicidal Activity ECC (phytotoxicity rating) [24]: 0; Post-emerge crop damage CORN (phytotoxicity rating) [25]: 0; Pre-emerge crop damage CORN (phytotoxicity rating) [26]: 5; Post-emerge Herbicidal Activity AML (phytotoxicity rating) [27]: 0; Pre-emerge Herbicidal Activity AMR (phytotoxicity rating) [28]: 65; Post-emerge crop damage WHEAT (phytotoxicity rating) [29]: 0; Pre-emerge Herbicidal Activity IPH (phytotoxicity rating) [30]: 25
